In brackets after ≈: the same amount, converted by molar mass.
Tests used:
[1] = system: Trichophyton rubrum; test: Antifungal susceptibility testing (NCCLS M27-A), Trichophyton rubrum cultures in vitro; assay type: cell-based; settings: for MIC80 / MIC100: 7 days at 30° C.; for MIC100: lowest concentration that inhibited 100% of fungal growth; for MFC: lowest concentration that killed at least 97% of the original inoculum; for fungicidal effect: result in words
Description: Suspensions were then treated with various polyoxyethylene alkyl ethers at a range of concentrations, and incubated for 7 days at 30° C. […] Minimum fungicidal concentrations (MFCs) were determined as the lowest concentration of compound that killed at least 97% of the original inoculum, as compared with the verified inoculum count.

[2] = critical micelle content; no method given; cited from earlier work
[3] = system: Trichophyton mentagrophytes; test: Additional fungal species susceptibility testing, Trichophyton mentagrophytes; assay type: cell-based
Description: (§1) A number of polyoxyethylene alkyl ethers were tested for fungicidal activity against Trichophyton rubrum cultures in vitro according to standard methods (see, Approved Standard M27-A, National Commitee for […] Laboratory Standards, 1997). Briefly, inocula from Trichophyton rubrum were harvested from agar cultures, suspended in 0.85% saline, and diluted to a verified final concentration of […] colony-forming units (CFU) per ml. Suspensions were then treated with various polyoxyethylene alkyl ethers at a range of concentrations, and incubated for 7 days at 30° C. Minimum inhibitory concentrations (MICs) were determined as the lowest concentration of compound that inhibited 100% of fungal growth, as compared with a polyoxyethylene alkyl ether-free control suspension. Minimum fungicidal concentrations (MFCs) were determined as the lowest concentration of compound that killed at least 97% of the original inoculum, as compared with the verified inoculum count. Trichophyton rubrum is the causative organism in 68-100% of patients in onychomycosis trials (Crawford et al. (2002) Archives Dermatol. 138:811-816). Trichophyton Mentagrophytes is the causative organism in most of the rest. Although yeast and other nondermatophytes can cause onychomycosis, the incidence is small. Additional fungal species were tested for susceptibility to treatment with Laureth-4 as described in Example 1.

[4] = system: Candida Albicans; test: Additional fungal species susceptibility testing, Candida albicans; assay type: cell-based
Description: as §1

[5] = system: Candida Parapsilosis; test: Additional fungal species susceptibility testing, Candida parapsilosis; assay type: cell-based
Description: as §1

[6] = system: Scopulariopsis brevicaulis; test: Additional fungal species susceptibility testing, Scopulariopsis brevicaulis; assay type: cell-based
Description: as §1

[7] = system: Aspergillus flavus; test: Additional fungal species susceptibility testing, Aspergillus flavus; assay type: cell-based
Description: as §1

[8] = system: Fusarium solani; test: Additional fungal species susceptibility testing, Fusarium solani; assay type: cell-based
Description: as §1

Molecule	MIC80 [1] [µg/mL]	MIC100 [1] [µg/mL]	CMC [2] [mM]	MFC [1] [µg/mL]	also measured
C[C@H](CCC(=O)NCCC[N+](C)(C)CCCS(=O)(=O)[O-])[C@H]1CC[C@H]2[C@@H]3[C@H](O)C[C@@H]4C[C@H](O)CC[C@]4(C)[C@H]3C[C@H](O)[C@]12C [CHAPS]	500 (≈ 813 µM)	1000 (≈ 1630 µM)	6 to 10	–	–
CCCCCCCCO[C@@H]1O[C@H](CO)[C@@H](O)[C@H](O)[C@H]1O [n-octyl-β-D-glucopyranoside]	31.25 (≈ 107 µM)	1000 (≈ 3420 µM)	20 to 25	–	–
CCCCCCCCS[C@@H]1O[C@H](CO)[C@@H](O)[C@H](O)[C@H]1O [n-octyl-β-D-thioglucopyranoside]	500 (≈ 1620 µM)	1000 (≈ 3240 µM)	9	–	–
Polyethylene glycol tert-octylphenyl ether [Triton X-100]	31.25	1000	0.2 to 0.9	–	–
Polyoxyethylene 2 cetyl ether [BRIJ 52]	0.98	3.9	–	7.8	–
Polyoxyethylene 2 oleyl ether [BRIJ 93]	250	250	–	1000	fungicidal effect [1]: loss of the effect
Polyoxyethylene 2 stearyl ether [BRIJ 72]	0.98	0.98	–	3.9	–
Polyoxyethylene 4 lauryl ether [BRIJ 30]	0.98	1.95	–	1.95	MFC [3]: 625 µg/mL; MIC80 [3]: 5 µg/mL; MIC100 [3]: 625 µg/mL; MFC [4]: >5000 µg/mL; MIC80 [4]: >5000 µg/mL; MIC100 [4]: >5000 µg/mL; MFC [5]: >5000 µg/mL; MIC80 [5]: 15.5 µg/mL; MIC100 [5]: >5000 µg/mL; MFC [6]: >5000 µg/mL; MIC80 [6]: 78 µg/mL; MIC100 [6]: >5000 µg/mL; MFC [7]: >5000 µg/mL; MIC80 [7]: 39 µg/mL; MIC100 [7]: >5000 µg/mL; MFC [8]: >5000 µg/mL; MIC80 [8]: 78 µg/mL; MIC100 [8]: >5000 µg/mL
Polyoxyethylene 20 cetyl ether [BRIJ 58]	0.49	0.98	–	1.95	–
Polyoxyethylene 20 cetyl/stearyl ether [BRIJ 68]	1.95	3.9	–	15.6	–
Polyoxyethylene 20 oleyl ether [BRIJ 98]	250	500	–	1000	fungicidal effect [1]: loss of the effect
Polyoxyethylene 20 stearyl ether [BRIJ 78]	0.98	1.95	–	3.9	–
Polyoxyethylene 23 lauryl ether [BRIJ 35]	0.49	0.98	0.09	1.95	–
Polyoxyethylenesorbitan monolaurate [Tween 20]	125	500	0.059	1000	–
Polyoxyethylenesorbitan monooleate [Tween 80]	250	1000	0.059	1000	–
Polyoxyethylenesorbitan monopalmitate [Tween 60]	250	500	0.059	1000	–
